Values quoted from earlier work, collected in patent US20060280786A1, “PHARMACEUTICAL FORMULATIONS FOR MINIMIZING DRUG-DRUG INTERACTIONS” (priority 2005, published 2006).

Settings: 200 mg dose of itraconazole

- fu (fraction of inhibitor drug unbound in plasma): 0.035
Structure (SMILES): CCC(C)n1ncn(-c2ccc(N3CCN(c4ccc(OCC5COC(Cn6cncn6)(c6ccc(Cl)cc6Cl)O5)cc4)CC3)cc2)c1=O (stereo not shown) [itraconazole]
